Results on 9 compounds are retold here after patent publication US12371454B2, “Cyclic peptide compound having Kras inhibitory action” (priority 2019, dated 2025).

Starred links: 1 amine or outer side, 2 acyl side, 3 side chain; linkers in the order of their positions; H or OH if unused. Positions of bridges follow the written chain, without caps; N, C: chain ends. Non-standard residues stand in square brackets, D forms with d. Residues, ends and D or L forms follow the SMILES beside them. *: point of attachment. hPhe(3,5-F2-4-CF3) = N[C@@H](CCc1cc(F)c(C(F)(F)F)c(F)c1)C(=O)O; hPhe(3-Cl-4-CF3) = N[C@@H](CCc1ccc(C(F)(F)F)c(Cl)c1)C(=O)O; hPhe(3-F,4-CF3) = N[C@@H](CCc1ccc(C(F)(F)F)c(F)c1)C(=O)O; NMePhe(4-CF3) = CN[C@@H](Cc1ccc(C(F)(F)F)cc1)C(=O)O; hPhe(4-CF3) = N[C@@H](CCc1ccc(C(F)(F)F)cc1)C(=O)O; NEtPhe(4-Me) = CCN[C@@H](Cc1ccc(C)cc1)C(=O)O; NMePhe(4-Cl) = CN[C@@H](Cc1ccc(Cl)cc1)C(=O)O; NMedβ3hAla = C[C@H](CC(=O)[*:2])N(C)[*:1]; NMeAla(cPent) = CN[C@@H](CC1CCCC1)C(=O)O; NMeGly(cPent) = CN[C@H](C(=O)O)C1CCCC1; Phe(3-I) = N[C@@H](Cc1cccc(I)c1)C(=O)O; Pro(4,4-F2) = O=C(O)[C@@H]1CC(F)(F)CN1; NMeCha = CN[C@@H](CC1CCCCC1)C(=O)O; NMeI = CC[C@H](C)[C@H](NC)C(=O)O; NMeD = CN[C@@H](CC(=O)O)C(=O)O; NMeL = CN[C@@H](CC(C)C)C(=O)O; NMeV = CN[C@H](C(=O)O)C(C)C; d(β3hA) = C[C@@H](N)CC(=O)O; NMeS = CN[C@@H](CO)C(=O)O; Morpholide = C1CN(*)CCO1; NMeA = CN[C@@H](C)C(=O)O; NMeAib = CNC(C)(C)C(=O)O; Nle = CCCC[C@H](N)C(=O)O; Piperidide = C1CCN(*)CC1; Pyrrolidide = C1CCN(*)C1; Ac5c = NC1(C(=O)O)CCCC1; Aze = O=C(O)[C@@H]1CCN1; X47 = Fc1cncc(C*)c1; Sar = CNCC(=O)O

In the assay the target is T1, Kras and SOS1 (biotin-tagged human Kras loaded with GDP, His-tagged human SOS1) (Homo sapiens, UniProt P01116, G12D).
T1 construct: made in house; host or cells: E. coli (stated for Kras only)
T1 sequence (P01116 1-188 isoform P01116-2 G12D): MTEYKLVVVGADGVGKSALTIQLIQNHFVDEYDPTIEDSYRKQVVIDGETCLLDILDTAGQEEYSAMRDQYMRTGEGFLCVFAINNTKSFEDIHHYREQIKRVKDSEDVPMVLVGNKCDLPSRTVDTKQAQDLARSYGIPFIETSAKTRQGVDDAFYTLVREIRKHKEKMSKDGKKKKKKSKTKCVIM
In words: Protein-protein interaction inhibition between Kras and SOS1 (KrasGl2D-SOS PPI) using AlphaScreen. The class given is binding. The settings on record: AlphaScreen; biotin-tagged human Kras loaded with GDP, His-tagged human SOS1; read-out: KRAS G12D-SOS PPI IC50. Put shortly:
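Energy transfer from nickel-chelate donor beads bound to His-SOS1 to streptavidin acceptor beads bound to biotin-Kras, expressed in E. coli and loaded with GDP after purification, was monitored. Donors were excited at 680 nm; singlet oxygen reaching acceptors gave emission read at 520-620 nm.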
As a reminder, the IC50 is the concentration needed to halve the response being measured. Consider `CC[C@H](C)[C@@H]1NC(=O)[C@H](CC(C)C)N(C)C(=O)C[C@@H](C)NC(=O)[C@H](CC(C)C)N(C)C(=O)C2(CCCC2)NC(=O)[C@@H]2CCN2C(=O)[C@H](CCc2ccc(C(F)(F)F)c(F)c2)NC(=O)CN(C)C(=O)[C@H](CC2CCCCC2)N(C)C(=O)CN(C)C(=O)CN(C)C1=O` [Compound 1545] (cyclo([Ac5c][NMeL][d(β3hA)][NMeL]I[Sar][Sar][NMeCha][Sar][hPhe(3-F,4-CF3)][Aze])), for which the IC50 is 0.042 µM.
Turning to `CC[C@H](C)[C@@H]1NC(=O)[C@H](CC(C)C)N(C)C(=O)C[C@@H](C(=O)N2CCCCC2)N(C)C(=O)[C@H](CC2CCCCC2)N(C)C(=O)C2(CCCC2)NC(=O)[C@@H]2CCCN2C(=O)[C@H](CCc2ccc(C(F)(F)F)c(Cl)c2)NC(=O)CN(C)C(=O)[C@H](CC2CCCCC2)N(C)C(=O)CN(C)C(=O)CN(C)C1=O` [Compound 577] ([NMeL]I[Sar][Sar][NMeCha][Sar][hPhe(3-Cl-4-CF3)]P[Ac5c][NMeCha][NMeD]-Piperidide; lactam N-11), the IC50 was 0.021 µM.
Regarding `CC[C@H](C)[C@@H]1NC(=O)[C@H](CC(C)C)N(C)C(=O)C[C@@H](C(=O)N(C)C)N(C)C(=O)[C@H]([C@@H](C)CC)N(C)C(=O)C2(CCCC2)NC(=O)[C@@H]2CCCN2C(=O)[C@H](CCc2cc(F)c(C(F)(F)F)c(F)c2)NC(=O)CN(C)C(=O)[C@H](Cc2ccc(C)cc2)N(CC)C(=O)[C@@H]2CCN2C(=O)[C@H](C)N(C)C1=O` [Compound 571] ([NMeL]I[NMeA][Aze][NEtPhe(4-Me)][Sar][hPhe(3,5-F2-4-CF3)]P[Ac5c][NMeI][NMeD]-NMe2; lactam N-11), the IC50 was found to be 0.00083 µM.
Regarding `CC[C@H](C)[C@@H]1NC(=O)[C@H](CC(C)C)N(C)C(=O)C[C@@H](C)N(C)C(=O)[C@H](C2CCCC2)N(C)C(=O)C2(CCCC2)NC(=O)[C@@H]2CC(F)(F)CN2C(=O)[C@H](CCc2cc(F)c(C(F)(F)F)c(F)c2)NC(=O)CN(C)C(=O)[C@H](Cc2ccc(C(F)(F)F)cc2)N(C)C(=O)CN(C)C(=O)CN(C)C1=O` [Compound 269] (cyclo([Ac5c][NMeGly(cPent)][NMedβ3hAla][NMeL]I[Sar][Sar][NMePhe(4-CF3)][Sar][hPhe(3,5-F2-4-CF3)][Pro(4,4-F2)])), the IC50 is 0.0034 µM.
Turning to `CC[C@H](C)[C@@H]1NC(=O)[C@H](C)N(C)C(=O)C[C@@H](C(=O)N2CCCCC2)N(C)C(=O)[C@H](C(C)C)N(C)C(=O)C(C)(C)N(C)C(=O)[C@@H]2CCCN2C(=O)[C@H](CCc2ccc(C(F)(F)F)c(Cl)c2)NC(=O)CN(C)C(=O)[C@H](CC2CCCCC2)N(C)C(=O)CN(C)C(=O)CN(C)C1=O` [Compound 507] ([NMeA]I[Sar][Sar][NMeCha][Sar][hPhe(3-Cl-4-CF3)]P[NMeAib][NMeV][NMeD]-Piperidide; lactam N-11), the IC50 came to 0.00048 µM.
In the case of `CC[C@H](C)[C@@H]1NC(=O)[C@H](CC(C)C)N(C)C(=O)C[C@@H](C)NC(=O)[C@H](CC(C)C)N(C)C(=O)C2(CCCC2)NC(=O)[C@@H]2CCCN2C(=O)[C@H](CCc2ccc(C(F)(F)F)c(F)c2)NC(=O)CN(C)C(=O)[C@H](CC2CCCCC2)N(C)C(=O)CN(C)C(=O)CN(C)C1=O` [Compound 402] (cyclo([Ac5c][NMeL][d(β3hA)][NMeL]I[Sar][Sar][NMeCha][Sar][hPhe(3-F,4-CF3)]P)), the IC50 was determined as 0.026 µM.
In the case of `CC[C@H](C)[C@@H]1NC(=O)[C@H](C)N(C)C(=O)C[C@@H](C(=O)N2CCCC2)NC(=O)[C@H](CC(C)C)N(C)C(=O)[C@H](COCc2cncc(F)c2)N(C)C(=O)[C@H](CC(C)C)NC(=O)[C@H](CCc2ccc(C(F)(F)F)cc2)NC(=O)CN(C)C(=O)[C@H](Cc2ccc(Cl)cc2)N(C)C(=O)CN(C)C(=O)CN(C)C1=O` [Compound 517] ([NMeA]I[Sar][Sar][NMePhe(4-Cl)][Sar][hPhe(4-CF3)]L[NMeS](X47)[NMeL]D-Pyrrolidide; lactam N-11) it was 0.028 µM; in that of `CCCC[C@@H]1NC(=O)[C@H](Cc2cccc(I)c2)NC(=O)CN(C)C(=O)[C@H](CC2CCCCC2)N(C)C(=O)CN(C)C(=O)CN(C)C(=O)[C@H]([C@@H](C)CC)NC(=O)[C@H](CC(C)C)N(C)C(=O)C[C@@H](C(=O)N2CCCCC2)N(C)C(=O)[C@H](CC(C)C)NC(=O)C(C)(C)N(C)C1=O` [Compound 1416] ([NMeL]I[Sar][Sar][NMeCha][Sar][Phe(3-I)][Nle][NMeAib]L[NMeD]-Piperidide; lactam N-11), 0.097 µM.
`CC[C@H](C)[C@@H]1NC(=O)[C@H](CC(C)C)N(C)C(=O)C[C@@H](C(=O)N2CCOCC2)N(C)C(=O)[C@H](C(C)C)N(C)C(=O)C2(CCCC2)NC(=O)[C@@H]2CCCN2C(=O)[C@H](CCc2ccc(C(F)(F)F)c(Cl)c2)NC(=O)CN(C)C(=O)[C@H](CC2CCCC2)N(C)C(=O)CN(C)C(=O)CN(C)C1=O` [Compound 1848] ([NMeL]I[Sar][Sar][NMeAla(cPent)][Sar][hPhe(3-Cl-4-CF3)]P[Ac5c][NMeV][NMeD]-Morpholide; lactam N-11): the IC50 is 0.0014 µM.
